# Assay results taken from US20120059029A1 (Elan Pharmaceuticals, Inc., priority 2010, published 2012).
# How the values were obtained:
# Format in all cases: cell-based
# [1] = biological target: T1, activated α4β1 on Jurkat cells (Homo sapiens, UniProt P05556+P13612); test: α4β1-FN capture assay in human serum (Jurkat cells, FACS); conditions: 50% human serum
# T1 construct: Jurkat™ lymphoma T cells express high levels of α4β1 integrin; endogenous in cells; host or cells: Jurkat cells
# Experimental: The α4β1 receptors on Jurkat™ cell surfaces can capture, in solution, the endogenous FN present in serum.
# An equal volume of assay buffer containing 50% human serum, the antibody 15/7 (2×, 20 μg/ml) and MnCl2 (2×, 3 mM) was then added to each well. These reagents served as α4 integrin activating agents, allowing the receptor to capture FN from the serum. The plate was then incubated for another 30 minutes at RT.
# α4β1 [2] = biological target: T2, α4β1 (Homo sapiens, UniProt P05556+P13612); test: α4β1-dependent Jurkat adhesion to rs-hu-VCAM-1; conditions: read-out: EC50, adhesion of Jurkat cells to human VCAM-1
# T2 construct: Jurkat™ lymphoma T cells express high levels of α4β1 integrin; endogenous in cells; host or cells: Jurkat cells
# T2 sequence (P13612 34-1032): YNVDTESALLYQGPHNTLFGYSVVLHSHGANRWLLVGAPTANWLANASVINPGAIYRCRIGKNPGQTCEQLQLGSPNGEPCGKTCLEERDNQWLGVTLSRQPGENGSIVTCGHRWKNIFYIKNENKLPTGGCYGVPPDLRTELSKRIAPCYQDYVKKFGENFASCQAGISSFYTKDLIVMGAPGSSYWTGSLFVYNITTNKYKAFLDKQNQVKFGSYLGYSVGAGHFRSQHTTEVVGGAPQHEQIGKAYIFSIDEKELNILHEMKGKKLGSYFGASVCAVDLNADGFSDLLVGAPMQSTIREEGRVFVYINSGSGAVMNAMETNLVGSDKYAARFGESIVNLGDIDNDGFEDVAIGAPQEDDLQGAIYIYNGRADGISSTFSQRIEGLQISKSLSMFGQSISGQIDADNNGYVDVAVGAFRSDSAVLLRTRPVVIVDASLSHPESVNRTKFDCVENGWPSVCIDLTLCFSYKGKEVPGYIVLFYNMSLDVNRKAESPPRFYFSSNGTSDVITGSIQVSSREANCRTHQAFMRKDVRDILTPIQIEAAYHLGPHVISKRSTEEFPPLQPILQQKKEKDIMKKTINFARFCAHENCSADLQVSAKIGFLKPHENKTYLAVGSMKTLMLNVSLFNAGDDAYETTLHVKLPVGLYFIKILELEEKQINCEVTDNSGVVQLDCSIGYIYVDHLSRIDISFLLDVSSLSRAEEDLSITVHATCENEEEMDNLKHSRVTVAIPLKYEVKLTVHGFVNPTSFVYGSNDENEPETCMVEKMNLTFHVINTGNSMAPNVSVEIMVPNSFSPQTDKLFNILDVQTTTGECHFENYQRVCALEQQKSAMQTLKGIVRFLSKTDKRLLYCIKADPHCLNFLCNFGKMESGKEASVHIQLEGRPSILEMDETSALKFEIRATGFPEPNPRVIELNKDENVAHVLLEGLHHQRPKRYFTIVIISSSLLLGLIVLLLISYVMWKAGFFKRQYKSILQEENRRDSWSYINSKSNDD
# T2 sequence (P05556 21-798): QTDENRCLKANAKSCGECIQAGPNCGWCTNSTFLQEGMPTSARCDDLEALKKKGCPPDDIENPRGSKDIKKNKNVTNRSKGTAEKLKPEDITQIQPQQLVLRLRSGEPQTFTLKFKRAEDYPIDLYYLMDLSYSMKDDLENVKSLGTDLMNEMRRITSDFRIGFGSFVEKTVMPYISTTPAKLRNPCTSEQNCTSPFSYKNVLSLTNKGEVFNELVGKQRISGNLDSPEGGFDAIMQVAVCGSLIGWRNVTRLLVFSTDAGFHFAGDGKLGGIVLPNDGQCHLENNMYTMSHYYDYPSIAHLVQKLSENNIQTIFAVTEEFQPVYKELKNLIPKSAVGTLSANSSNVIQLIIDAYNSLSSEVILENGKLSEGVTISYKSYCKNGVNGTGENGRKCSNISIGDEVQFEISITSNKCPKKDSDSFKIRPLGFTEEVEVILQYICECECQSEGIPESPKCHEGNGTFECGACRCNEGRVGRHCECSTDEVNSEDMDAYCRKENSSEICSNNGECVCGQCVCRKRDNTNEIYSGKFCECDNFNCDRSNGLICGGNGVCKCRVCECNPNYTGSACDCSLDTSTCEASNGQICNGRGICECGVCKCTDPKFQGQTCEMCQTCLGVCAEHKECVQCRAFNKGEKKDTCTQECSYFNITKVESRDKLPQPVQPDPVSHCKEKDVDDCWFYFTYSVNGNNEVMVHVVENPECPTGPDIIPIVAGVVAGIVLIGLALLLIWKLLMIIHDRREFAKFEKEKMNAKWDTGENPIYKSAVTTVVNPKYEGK
# From the text: Jurkat™ lymphoma T cells express high levels of α4β1 integrin and strongly adhere to VCAM-1 in an α4 integrin-dependent fashion.
# α4β1 [3] = biological target: T2, α4β1; test: α4β1-dependent Jurkat cell adhesion to human fibronectin; conditions: TS2/16-activated α4β1, anti-α5 antibody present; read-out: EC50, Jurkat adhesion to FN
# Experimental: Jurkat™ cells adhere to fibronectin (FN) in an […] fashion.
# 5 μg/mL of an inhibitory antibody against α5 integrin (BD Pharmingen, Franklin Lakes, N.J.) is added to the buffer to prevent α5-dependent adhesion to FN.
# T1 sequence (P13612 34-1032): as the sequence (P13612 34-1032) above
# T1 sequence (P05556 21-798): as the sequence (P05556 21-798) above
smiles,measurement,setting,value
CC1(C)SCN(S(=O)(=O)c2cccnc2)[C@@H]1C(=O)N[C@@H](Cc1ccc(-n2c(=O)[nH]c3cccnc32)cc1)C(=O)O,"fold less potent than Formula (I), FN capture",[1],2.6 fold
same,EC50,α4β1 [2],11.6 nM
same,EC50,α4β1 [3],0.1 nM
